Experimental data: US9834542B2, “LXR modulators” (BRISTOL-MYERS SQUIBB COMPANY, priority 2013, dated 2017)

Target: T1, LXRβ (Homo sapiens, UniProt P55055)
T1 construct: Co-transfection expression plasmids, comprising full-length LXRα (pCMX-h LXRα[…] or LXRβ (pCMX-hLXRβ)); expressed in transfected cells; host or cells: CV-1 African Green Monkey Kidney Cells
T1 sequence (P55055 1-460): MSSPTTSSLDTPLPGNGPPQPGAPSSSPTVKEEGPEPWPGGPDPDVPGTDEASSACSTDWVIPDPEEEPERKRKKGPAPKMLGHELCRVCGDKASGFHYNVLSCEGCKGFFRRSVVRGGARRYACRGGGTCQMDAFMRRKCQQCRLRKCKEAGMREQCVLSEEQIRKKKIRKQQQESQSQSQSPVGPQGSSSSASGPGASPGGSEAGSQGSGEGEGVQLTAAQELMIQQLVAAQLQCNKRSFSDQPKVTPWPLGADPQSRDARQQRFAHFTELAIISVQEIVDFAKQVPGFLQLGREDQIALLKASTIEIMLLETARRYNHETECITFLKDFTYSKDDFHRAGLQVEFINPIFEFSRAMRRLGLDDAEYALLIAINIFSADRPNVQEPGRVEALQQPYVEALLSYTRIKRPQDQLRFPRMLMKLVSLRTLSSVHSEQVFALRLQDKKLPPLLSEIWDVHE
T1 sequence (P19793 1-462 partner): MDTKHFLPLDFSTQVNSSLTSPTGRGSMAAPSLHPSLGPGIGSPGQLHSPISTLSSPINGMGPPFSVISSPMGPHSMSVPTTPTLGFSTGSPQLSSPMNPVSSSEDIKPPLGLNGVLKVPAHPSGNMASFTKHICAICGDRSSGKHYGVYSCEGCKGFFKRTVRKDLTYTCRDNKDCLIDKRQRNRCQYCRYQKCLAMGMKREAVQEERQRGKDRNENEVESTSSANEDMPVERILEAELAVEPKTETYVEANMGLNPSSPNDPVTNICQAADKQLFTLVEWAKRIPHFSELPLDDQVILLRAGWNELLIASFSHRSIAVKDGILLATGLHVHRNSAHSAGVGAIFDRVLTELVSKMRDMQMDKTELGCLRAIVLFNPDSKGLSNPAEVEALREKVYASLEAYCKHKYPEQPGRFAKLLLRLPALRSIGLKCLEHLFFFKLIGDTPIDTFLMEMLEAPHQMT
Assay: Co-transfection assay (LXRE luciferase reporter), LXRβ
Type: cell-based
Details: for EC50: CV-1 cells transfected with pCMX-hLXRβ and LXREx1-Tk-Luciferase, 20 hours incubation; for Emax: LXRβ co-transfection, relative to high control 1-(2,4-difluorobenzyl)-2-oxo-6-(4-phenoxyphenyl)-4-(trifluoromethyl)-1,2-dihydropyridine-3-carbonitrile, read-out: % Efficacy
Summary of the method: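 CV-1 cells transiently co-transfected with full-length human LXRβ expression plasmid, LXREx1-Tk-luciferase reporter and β-galactosidase control, then exposed to compound for 20 h at 37 °C. Luciferase luminescence read; EC50 from 11-point, ½-log dose–response fit, efficacy relative to high-control agonist maximum.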

| SMILES | EC50 [nM] | Emax [%] |
| --- | --- | --- |
| Cc1nc(C(F)(F)F)cn1-c1c(F)cc(-c2cc(F)c(CO)c(S(C)(=O)=O)c2)cc1-n1nncc1-c1ccc(Cl)cc1Cl [Example 200, {3′-[5-(2,4-dichlorophenyl)-1H-1,2,3-triazol-1-yl]-3,5′-difluoro-5-(methylsulfonyl)-4′-[2-methyl-4-(trifluoromethyl)-1H-imidazol-1-yl]biphenyl-4-yl}methanol] | 74 | 83 |
| Cc1nc(-c2cc(-c3cccc(S(C)(=O)=O)c3)ccc2-n2cc(C(F)(F)F)nc2C)c(-c2ccc(F)cc2)o1 [Example 505, 5-(4-fluorophenyl)-2-methyl-4-(4-(2-methyl-4-(trifluoromethyl)-1H-imidazol-1-yl)-3′-(methylsulfonyl)biphenyl-3-yl)oxazole] | 144 | 87 |
| Cc1nc(C(F)(F)F)cn1-c1ccc(-c2cccc(C(C)(C)C(N)=O)c2)cc1-n1nncc1Cc1cccc(Cl)c1 [Example 114, 2-(3′-{5-[(3-chlorophenyl)methyl]-1H-1,2,3-triazol-1-yl}-4′-[2-methyl-4-(trifluoromethyl)-1H-imidazol-1-yl]biphenyl-3-yl)-2-methylpropanamide] | 940 | 98 |
| Cc1nc(-c2cc(-c3cc(F)c(CO)c(S(C)(=O)=O)c3)ccc2-n2cc(C(F)(F)F)nc2C)c(-c2cccc(OC(F)(F)F)c2)o1 [Example 545, (3-fluoro-4′-(2-methyl-4-(trifluoromethyl)-1H-imidazol-1-yl)-3′-(2-methyl-5-(3-(trifluoromethoxy)phenyl)oxazol-4-yl)-5-(methylsulfonyl)-[1,1′-biphenyl]-4-yl)methanol] | 38 | 32 |
| Cc1nc(-c2ccccc2OC(F)(F)F)c(-c2cc(-c3cc(F)c(CO)c(S(C)(=O)=O)c3)ccc2-n2cc(C(F)(F)F)nc2C)o1 [Example 632, (3-fluoro-3′-(2-methyl-4-(2-(trifluoromethoxy)phenyl)oxazol-5-yl)-4′-(2-methyl-4-(trifluoromethyl)-1H-imidazol-1-yl)-5-(methylsulfonyl)-[1,1′-biphenyl]-4-yl)methanol] | 34 | 41 |
| COc1ccc(-c2oc(C)nc2-c2cc(-c3cc(F)c(CO)c(S(C)(=O)=O)c3)ccc2-n2cc(C(F)(F)F)nc2C)cn1 [Example 570, (3-fluoro-3′-(5-(6-methoxypyridin-3-yl)-2-methyloxazol-4-yl)-4′-(2-methyl-4-(trifluoromethyl)-1H-imidazol-1-yl)-5-(methylsulfonyl)-[1,1′-biphenyl]-4-yl)methanol] | 199 | 93 |
| Cc1nc(-c2cc(-c3cc(F)c(CO)c(S(C)(=O)=O)c3)ccc2-n2cc(C(F)(F)F)nc2C)c(-c2ccc3ccccc3c2)o1 [Example 437, (3-fluoro-4′-(2-methyl-4-(trifluoromethyl)-1H-imidazol-1-yl)-3′-(2-methyl-5-(naphthalen-2-yl)oxazol-4-yl)-5-(methylsulfonyl)biphenyl-4-yl)methanol] | 34 | 76 |
| CS(=O)(=O)c1cccc(-c2ccc(-n3cc(C(F)(F)F)nc3Cl)c(-n3nncc3-c3ccc(OC(F)(F)F)cc3)c2)c1 [Example 146, 1-{4-[2-chloro-4-(trifluoromethyl)-1H-imidazol-1-yl]-3′-(methylsulfonyl)biphenyl-3-yl}-5-{4-[(trifluoromethyl)oxy]phenyl}-1H-1,2,3-triazole] | 251 | 112 |
| CCC(F)(F)c1cn(-c2ccc(-c3cc(F)c(CO)c(S(C)(=O)=O)c3)cc2-c2nc(C)oc2-c2ccc(OC(F)(F)F)cc2)c(C)n1 [Example 518, (4′-(4-(1,1-difluoropropyl)-2-methyl-1H-imidazol-1-yl)-3-fluoro-3′-(2-methyl-5-(4-(trifluoromethoxy)phenyl)oxazol-4-yl)-5-(methylsulfonyl)-[1,1′-biphenyl]-4-yl)methanol] | 107 | 49 |
| COc1ncc(F)cc1-c1oc(C)nc1-c1cc(-c2cccc(S(C)(=O)=O)c2)ccc1-n1cc(C(F)(F)F)nc1C [Example 400] | 1160 | 55 |
| Cc1nc(-c2cc(-c3cc(F)c(CO)c(S(C)(=O)=O)c3)ccc2-n2cc(C(F)(F)F)nc2C)c(-c2cccn(C(C)C)c2=O)o1 [Example 378, 3-(4-(3′-fluoro-4′-(hydroxymethyl)-4-(2-methyl-4-(trifluoromethyl)-1H-imidazol-1-yl)-5′-(methylsulfonyl)biphenyl-3-yl)-2-methyloxazol-5-yl)-1-isopropylpyridin-2(1H)-one] | 49 | 24 |

Second part, the molecule after the results:

| EC50 [nM] | Emax [%] | SMILES |
| --- | --- | --- |
| 233 | 63 | Cc1nc(-c2cc(-c3cccc(S(C)(=O)=O)c3)ccc2-n2cc(C(F)(F)F)nc2C)c(-c2cccc(OC(F)(F)C(F)(F)F)c2)o1 [Example 574, 2-methyl-4-(4-(2-methyl-4-(trifluoromethyl)-1H-imidazol-1-yl)-3′-(methylsulfonyl)-[1,1′-biphenyl]-3-yl)-5-(3-(perfluoroethoxy)phenyl)oxazole] |
| 54 | 86 | Cc1nc(-c2ccc(OC(F)(F)F)cc2)c(-c2cc(-c3cccc(S(C)(=O)=O)c3)ccc2-n2cc(C(F)(F)F)nc2C)o1 [Example 604, 2-methyl-5-(4-(2-methyl-4-(trifluoromethyl)-1H-imidazol-1-yl)-3′-(methylsulfonyl)-[1,1′-biphenyl]-3-yl)-4-(4-(trifluoromethoxy)phenyl)oxazole] |
| 214 | 80 | CNS(=O)(=O)c1cccc(-c2cc(F)c(-n3cc(C(F)(F)F)nc3C)c(-n3nncc3-c3ccc(Cl)cc3)c2)c1 [Example 209, 3′-[5-(4-chlorophenyl)-1H-1,2,3-triazol-1-yl]-5′-fluoro-N-methyl-4′-[2-methyl-4-(trifluoromethyl)-1H-imidazol-1-yl]biphenyl-3-sulfonamide] |
| 1770 | 63 | Cc1nc(C(F)(F)F)cn1-c1ccc(-c2cc(F)c(CO)c(S(C)(=O)=O)c2)cc1-n1nncc1C(C)(C)c1ccc(Cl)cc1 [Example 223, (3′-(5-(2-(4-chlorophenyl)propan-2-yl)-1H-1,2,3-triazol-1-yl)-3-fluoro-4′-(2-methyl-4-(trifluoromethyl)-1H-imidazol-1-yl)-5-(methylsulfonyl)-[1,1′-biphenyl]-4-yl)methanol] |
| 88 | 124 | Cc1nc(-c2cc(-c3ccc(CO)c(S(C)(=O)=O)c3)ccc2-n2cc(C(F)(F)F)nc2C)c(-c2ccc(OC(F)F)cc2)o1 [Example 497, (3′-(5-(4-(difluoromethoxy)phenyl)-2-methyloxazol-4-yl)-4′-(2-methyl-4-(trifluoromethyl)-1H-imidazol-1-yl)-3-(methylsulfonyl)biphenyl-4-yl)methanol] |
| 161 | 66 | Cc1nc(C(F)(F)F)cn1-c1ccc(-c2cc(F)c(CO)c(S(C)(=O)=O)c2)cc1-c1ocnc1Cc1ccc(Cl)cc1 [Example 633, (3′-(4-(4-chlorobenzyl)oxazol-5-yl)-3-fluoro-4′-(2-methyl-4-(trifluoromethyl)-1H-imidazol-1-yl)-5-(methylsulfonyl)-[1,1′-biphenyl]-4-yl)methanol] |
| 63 | 74 | Cc1nc(C(F)(F)F)cn1-c1ccc(-c2cccc(S(C)(=O)=O)c2)cc1-c1nc(C(C)C)oc1-c1ccc2c(c1)OC(F)(F)O2 [Example 480, 5-(2,2-difluorobenzo[d][1,3]dioxol-5-yl)-2-isopropyl-4-(4-(2-methyl-4-(trifluoromethyl)-1H-imidazol-1-yl)-3′-(methylsulfonyl)biphenyl-3-yl)oxazole] |
| 783 | 66 | Cc1nc(C(F)(F)F)cn1-c1ccc(-c2cccc(S(C)(=O)=O)c2)cc1-c1oc(CCO)nc1-c1ccc(Cl)cc1 [Example 618, 2-(4-(4-chlorophenyl)-5-(4-(2-methyl-4-(trifluoromethyl)-1H-imidazol-1-yl)-3′-(methylsulfonyl)-[1,1′-biphenyl]-3-yl)oxazol-2-yl)ethanol] |
| 61 | 76 | Cc1nc(-c2cc(-c3cccc(S(C)(=O)=O)c3)ccc2-n2cc(C(F)(F)F)nc2C)c(-c2ccc(F)c(Cl)c2)o1 [Example 510, 5-(3-chloro-4-fluorophenyl)-2-methyl-4-(4-(2-methyl-4-(trifluoromethyl)-1H-imidazol-1-yl)-3′-(methylsulfonyl)biphenyl-3-yl)oxazole] |
